Data as given in patent US20240000872A1, “NOVEL BACTERIOPHAGE THAT LYSES ACINETOBACTER GENUS BACTERIA HAVING RESISTANCE TO ANTIBIOTICS” (priority 2020, published 2024).

Tested on: Acinetobacter baumannii strains
Experiment: Antibiotic susceptibility test (CLSI disk diffusion test method, read per CLSI 2016); for antibiotic susceptibility S/I/R: key: ‘S’ means susceptible; ‘I’ means intermediate; ‘R’ means resistant
Type: cell-based
Set-up: antibiotic susceptibility test value / susceptibility test value (number given before S/I/R) / antibiotic susceptibility value: unit not given here

For CCN1CCN(C(=O)N[C@@H](C(=O)N[C@@H]2C(=O)N3[C@@H]2SC(C)(C)[C@@H]3C(=O)O)c2ccccc2)C(=O)C1=O [Piperalillinc], the “antibiotic susceptibility S/I/R” value (host strain YMC14/06/R2359) was “R”, the antibiotic susceptibility value (host strain YMC14/06/R2359) was 128 and the “antibiotic susceptibility S/I/R” value (host strain YMC14/08/R1169) was “R”. The antibiotic susceptibility value (host strain YMC14/08/R1169) was 128, the “antibiotic susceptibility S/I/R” value (host strain YMC14/08/T90) was “R” and the antibiotic susceptibility value (host strain YMC14/08/T90) was 128. The “antibiotic susceptibility S/I/R” value (host strain YMC15/02/R436) was “R”, the antibiotic susceptibility value (host strain YMC15/02/R436) was 128 and the “antibiotic susceptibility S/I/R” value (host strain YMC15/02/T28) was “R”. The antibiotic susceptibility value (host strain YMC15/02/T28) was 128, the “antibiotic susceptibility S/I/R” value (host strain YMC15/03/R1604) was “R” and the antibiotic susceptibility value (host strain YMC15/03/R1604) was 128. For the same compound, the “antibiotic susceptibility S/I/R” value (host strain YMC15/09/R1869) was “R”, the antibiotic susceptibility value (host strain YMC15/09/R1869) was 128 and the “antibiotic susceptibility S/I/R” value (host strain YMC16/01/P11) was “R”. The antibiotic susceptibility value (host strain YMC16/01/P11) was 128, the “antibiotic susceptibility S/I/R” value (host strain YMC16/01/R123) was “R” and the antibiotic susceptibility value (host strain YMC16/01/R123) was 128. The “antibiotic susceptibility S/I/R” value (host strain YMC16/01/R198) was “R”, the antibiotic susceptibility value (host strain YMC16/01/R198) was 128 and the “antibiotic susceptibility S/I/R” value (host strain YMC16/01/R353) was “R”. For the same compound, the antibiotic susceptibility value (host strain YMC16/01/R353) was 128, the “antibiotic susceptibility S/I/R” value (host strain YMC16/01/R380) was “R” and the antibiotic susceptibility value (host strain YMC16/01/R380) was 128. The “antibiotic susceptibility S/I/R” value (host strain YMC16/01/R397) was “R”, the antibiotic susceptibility value (host strain YMC16/01/R397) was 128 and the “antibiotic susceptibility S/I/R” value (host strain YMC16/01/R405) was “R”. For the same compound, the antibiotic susceptibility value (host strain YMC16/01/R405) was 128, the “antibiotic susceptibility S/I/R” value (host strain YMC16/03/R4461) was “R” and the antibiotic susceptibility value (host strain YMC16/03/R4461) was 128. For the same compound, the “antibiotic susceptibility S/I/R” value (host strain YMC16/05/R2210) was “R”, the antibiotic susceptibility value (host strain YMC16/05/R2210) was 128 and the “antibiotic susceptibility S/I/R” value (host strain YMC16/07/R2512) was “R”. For the same compound, the antibiotic susceptibility value (host strain YMC16/07/R2512) was 128, the “antibiotic susceptibility S/I/R” value (host strain YMC16/09/R2471) was “R” and the antibiotic susceptibility value (host strain YMC16/09/R2471) was 128. For the same compound, the “antibiotic susceptibility S/I/R” value (host strain YMC16/10/R2537) was “R”, the antibiotic susceptibility value (host strain YMC16/10/R2537) was 128 and the “antibiotic susceptibility S/I/R” value (host strain YMC16/12/B11422) was “R”. For the same compound, the antibiotic susceptibility value (host strain YMC16/12/B11422) was 128, the “antibiotic susceptibility S/I/R” value (host strain YMC16/12/B11449) was “R” and the antibiotic susceptibility value (host strain YMC16/12/B11449) was 128. For the same compound, the “antibiotic susceptibility S/I/R” value (host strain YMC16/12/B13325) was “R”, the antibiotic susceptibility value (host strain YMC16/12/B13325) was 128 and the “antibiotic susceptibility S/I/R” value (host strain YMC16/12/P503) was “R”. The antibiotic susceptibility value (host strain YMC16/12/P503) was 128, the “antibiotic susceptibility S/I/R” value (host strain YMC16/12/R4637) was “R” and the antibiotic susceptibility value (host strain YMC16/12/R4637) was 128. The “antibiotic susceptibility S/I/R” value (host strain YMC17/01/B8053) was “R”, the antibiotic susceptibility value (host strain YMC17/01/B8053) was 128 and the “antibiotic susceptibility S/I/R” value (host strain YMC17/01/B10087) was “R”. For the same compound, the antibiotic susceptibility value (host strain YMC17/01/B10087) was 128, the “antibiotic susceptibility S/I/R” value (host strain YMC17/01/B12075) was “R” and the antibiotic susceptibility value (host strain YMC17/01/B12075) was 128. The “antibiotic susceptibility S/I/R” value (host strain YMC17/01/B13454) was “R”, the antibiotic susceptibility value (host strain YMC17/01/B13454) was 128 and the “antibiotic susceptibility S/I/R” value (host strain YMC17/01/P518) was “R”. The antibiotic susceptibility value (host strain YMC17/01/P518) was 128, the “antibiotic susceptibility S/I/R” value (host strain YMC17/01/R2812) was “R” and the antibiotic susceptibility value (host strain YMC17/01/R2812) was 128. The “antibiotic susceptibility S/I/R” value (host strain YMC17/02/B14) was “R”, the antibiotic susceptibility value (host strain YMC17/02/B14) was 128 and the “antibiotic susceptibility S/I/R” value (host strain YMC17/02/B87) was “R”. The antibiotic susceptibility value (host strain YMC17/02/B87) was 128, the “antibiotic susceptibility S/I/R” value (host strain YMC17/02/B721) was “R” and the antibiotic susceptibility value (host strain YMC17/02/B721) was 128. The “antibiotic susceptibility S/I/R” value (host strain YMC17/02/B4039) was “R”, the antibiotic susceptibility value (host strain YMC17/02/B4039) was 128 and the “antibiotic susceptibility S/I/R” value (host strain YMC17/02/B4520) was “R”. For the same compound, the antibiotic susceptibility value (host strain YMC17/02/B4520) was 128, the “antibiotic susceptibility S/I/R” value (host strain YMC17/02/B4864) was “S” and the antibiotic susceptibility value (host strain YMC17/02/B4864) was 8. For the same compound, the “antibiotic susceptibility S/I/R” value (host strain YMC17/02/B8414) was “R”, the antibiotic susceptibility value (host strain YMC17/02/B8414) was 128 and the “antibiotic susceptibility S/I/R” value (host strain YMC17/02/P523) was “R”. For the same compound, the antibiotic susceptibility value (host strain YMC17/02/P523) was 128, the “antibiotic susceptibility S/I/R” value (host strain YMC17/02/R541) was “R” and the antibiotic susceptibility value (host strain YMC17/02/R541) was 128. The “antibiotic susceptibility S/I/R” value (host strain YMC17/02/R2392) was “R”, the antibiotic susceptibility value (host strain YMC17/02/R2392) was 128 and the “antibiotic susceptibility S/I/R” value (host strain YMC17/03/B4730) was “R”. The antibiotic susceptibility value (host strain YMC17/03/B4730) was 128, the “antibiotic susceptibility S/I/R” value (host strain YMC17/03/B5000) was “R” and the antibiotic susceptibility value (host strain YMC17/03/B5000) was 128. The “antibiotic susceptibility S/I/R” value (host strain YMC17/03/P971) was “R”, the antibiotic susceptibility value (host strain YMC17/03/P971) was 128 and the “antibiotic susceptibility S/I/R” value (host strain YMC17/03/R348) was “R”. For the same compound, the antibiotic susceptibility value (host strain YMC17/03/R348) was 128, the “antibiotic susceptibility S/I/R” value (host strain YMC17/03/R585) was “R” and the antibiotic susceptibility value (host strain YMC17/03/R585) was 128. For the same compound, the “antibiotic susceptibility S/I/R” value (host strain YMC17/03/R1888) was “R”, the antibiotic susceptibility value (host strain YMC17/03/R1888) was 128 and the “antibiotic susceptibility S/I/R” value (host strain YMC17/03/R3279) was “R”. The antibiotic susceptibility value (host strain YMC17/03/R3279) was 128, the “antibiotic susceptibility S/I/R” value (host strain YMC17/03/R4077) was “R” and the antibiotic susceptibility value (host strain YMC17/03/R4077) was 128. The “antibiotic susceptibility S/I/R” value (host strain YMC17/03/R4607) was “R”, the antibiotic susceptibility value (host strain YMC17/03/R4607) was 128 and the “antibiotic susceptibility S/I/R” value (host strain YMC17/04/R488) was “R”. For the same compound, the antibiotic susceptibility value (host strain YMC17/04/R488) was 128, the “antibiotic susceptibility S/I/R” value (host strain YMC17/04/R640) was “R” and the antibiotic susceptibility value (host strain YMC17/04/R640) was 128. The “antibiotic susceptibility S/I/R” value (host strain YMC/17/05/R1095) was “R” and the antibiotic susceptibility value (host strain YMC/17/05/R1095) was 128.
